Experimental data taken from PMC6979384, “Characterization of the plant homeodomain (PHD) reader family for their histone tail interactions” (Epigenetics & Chromatin, 2020).

What was measured:
Assay in all cases: Histone peptide microarray
Format in all cases: binding, human
AIRE (PP) = conditions: GST-tagged AIRE (PP); sheet Array Heatmap; each array performed twice, total n = 4
Outline: (§1)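 Each reader, produced as a GST fusion and purified, was tested at 0.5 μM on synthetic histone peptides (293 in total) carrying single or combinatorial marks. Intensities averaged over four replicates.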

BAZ2B = conditions: GST-tagged BAZ2B; sheet Array Heatmap; each array performed twice, total n = 4
Outline: as §1

BPTF (PB) = conditions: GST-tagged BPTF (PB = PHD + Bromodomain); sheet Array Heatmap; each array performed twice, total n = 4
Outline: as §1

CHD4 (PPCC) = conditions: GST-tagged CHD4 (PPCC = Dual PHD + Dual Chromodomain); sheet Array Heatmap; each array performed twice, total n = 4
Outline: as §1

CHD5 (PCC) = conditions: GST-tagged CHD5 (PCC = PHD + Dual Chromodomain); sheet Array Heatmap; each array performed twice, total n = 4
Outline: as §1

CHD5 (PPCC) = conditions: GST-tagged CHD5 (PPCC = Dual PHD + Dual Chromodomain); sheet Array Heatmap; each array performed twice, total n = 4
Outline: as §1

DIDO1 = conditions: GST-tagged DIDO1; sheet Array Heatmap; each array performed twice, total n = 4
Outline: as §1

DPF2 (PPC2W2) = conditions: GST-tagged DPF2 (PPC2W2 = Dual PHD + C2W2-type Zn-finger); sheet Array Heatmap; each array performed twice, total n = 4
Outline: as §1

ING1 = conditions: GST-tagged ING1; sheet Array Heatmap; each array performed twice, total n = 4
Outline: as §1

ING2 = conditions: GST-tagged ING2; sheet Array Heatmap; each array performed twice, total n = 4
Outline: as §1

ING3 = conditions: GST-tagged ING3; sheet Array Heatmap; each array performed twice, total n = 4
Outline: as §1

ING4 = conditions: GST-tagged ING4; sheet Array Heatmap; each array performed twice, total n = 4
Outline: as §1

ING5 = conditions: GST-tagged ING5; sheet Array Heatmap; each array performed twice, total n = 4
Outline: as §1

KDM4C (TTP) = conditions: GST-tagged KDM4C (TTP = Tandem Tudor domain + PHD); sheet Array Heatmap; each array performed twice, total n = 4
Outline: as §1

KDM5A (1) = conditions: GST-tagged KDM5A (1); sheet Array Heatmap; each array performed twice, total n = 4
Outline: as §1

KDM5A (3) = conditions: GST-tagged KDM5A (3); sheet Array Heatmap; each array performed twice, total n = 4
Outline: as §1

KDM5B (1) = conditions: GST-tagged KDM5B (1); sheet Array Heatmap; each array performed twice, total n = 4
Outline: as §1

KDM5B (3) = conditions: GST-tagged KDM5B (3); sheet Array Heatmap; each array performed twice, total n = 4
Outline: as §1

KDM7A = conditions: GST-tagged KDM7A; sheet Array Heatmap; each array performed twice, total n = 4
Outline: as §1

MLL5 = conditions: GST-tagged MLL5; sheet Array Heatmap; each array performed twice, total n = 4
Outline: as §1

MORC3 (CW) = conditions: GST-tagged MORC3 (CW = CW-type Zn-finger); sheet Array Heatmap; each array performed twice, total n = 4
Outline: as §1

PHF13 = conditions: GST-tagged PHF13; sheet Array Heatmap; each array performed twice, total n = 4
Outline: as §1

PHF21A = conditions: GST-tagged PHF21A; sheet Array Heatmap; each array performed twice, total n = 4
Outline: as §1

PHF23 = conditions: GST-tagged PHF23; sheet Array Heatmap; each array performed twice, total n = 4
Outline: as §1

PHF2 = conditions: GST-tagged PHF2; sheet Array Heatmap; each array performed twice, total n = 4
Outline: as §1

PHF8 = conditions: GST-tagged PHF8; sheet Array Heatmap; each array performed twice, total n = 4
Outline: as §1

PHRF1 (RP) = conditions: GST-tagged PHRF1 (RP); sheet Array Heatmap; each array performed twice, total n = 4
Outline: as §1

RAG2 = conditions: GST-tagged RAG2; sheet Array Heatmap; each array performed twice, total n = 4
Outline: as §1

SP140L = conditions: GST-tagged SP140L; sheet Array Heatmap; each array performed twice, total n = 4
Outline: as §1

TAF3 = conditions: GST-tagged TAF3; sheet Array Heatmap; each array performed twice, total n = 4
Outline: as §1

TRIM66 (PB) = conditions: GST-tagged TRIM66 (PB = PHD + Bromodomain); sheet Array Heatmap; each array performed twice, total n = 4
Outline: as §1

Substance	Array Heatmap signal (histone peptide microarray) (AIRE (PP))	Array Heatmap signal (histone peptide microarray) (BAZ2B)	Array Heatmap signal (histone peptide microarray) (BPTF (PB))	Array Heatmap signal (histone peptide microarray) (CHD4 (PPCC))	Array Heatmap signal (histone peptide microarray) (CHD5 (PCC))	Array Heatmap signal (histone peptide microarray) (CHD5 (PPCC))	Array Heatmap signal (histone peptide microarray) (DIDO1)	Array Heatmap signal (histone peptide microarray) (DPF2 (PPC2W2))	Array Heatmap signal (histone peptide microarray) (ING1)	Array Heatmap signal (histone peptide microarray) (ING2)	Array Heatmap signal (histone peptide microarray) (ING3)	Array Heatmap signal (histone peptide microarray) (ING4)	Array Heatmap signal (histone peptide microarray) (ING5)	Array Heatmap signal (histone peptide microarray) (KDM4C (TTP))	Array Heatmap signal (histone peptide microarray) (KDM5A (1))	Array Heatmap signal (histone peptide microarray) (KDM5A (3))	Array Heatmap signal (histone peptide microarray) (KDM5B (1))	Array Heatmap signal (histone peptide microarray) (KDM5B (3))	Array Heatmap signal (histone peptide microarray) (KDM7A)	Array Heatmap signal (histone peptide microarray) (MLL5)	other results
H3R2me2a + K4me3 + K9ac + S10p + K14ac + K18ac: H3 1-20	0.4047	0.4937	0.3887	0.6237	0.7925	0.548	0.8949	0.6777	0.5459	0.6564	0.4975	0.4604	0.3501	0.4723	0.4602	0.601	0.6513	0.4836	0.3601	0.625	Array Heatmap signal (histone peptide microarray) (MORC3 (CW)): 0.5411; Array Heatmap signal (histone peptide microarray) (PHF13): 0.6389; Array Heatmap signal (histone peptide microarray) (PHF21A): 0.4526; Array Heatmap signal (histone peptide microarray) (PHF23): 0.5457; Array Heatmap signal (histone peptide microarray) (PHF2): 0.7095; Array Heatmap signal (histone peptide microarray) (PHF8): 0.4417; Array Heatmap signal (histone peptide microarray) (PHRF1 (RP)): 0.447; Array Heatmap signal (histone peptide microarray) (RAG2): 0.3777; Array Heatmap signal (histone peptide microarray) (SP140L): 0.3224; Array Heatmap signal (histone peptide microarray) (TAF3): 0.4085; Array Heatmap signal (histone peptide microarray) (TRIM66 (PB)): 0.5406
H3R2me2a + K4me3 + S10p: H3 1-20	0.4162	0.4437	0.396	0.5987	0.741	0.5451	0.8994	0.7179	0.6296	0.6788	0.4991	0.4698	0.3497	0.4873	0.4568	0.7062	0.6814	0.5192	0.3687	0.6475	Array Heatmap signal (histone peptide microarray) (MORC3 (CW)): 0.6914; Array Heatmap signal (histone peptide microarray) (PHF13): 0.6271; Array Heatmap signal (histone peptide microarray) (PHF21A): 0.4392; Array Heatmap signal (histone peptide microarray) (PHF23): 0.5952; Array Heatmap signal (histone peptide microarray) (PHF2): 0.8067; Array Heatmap signal (histone peptide microarray) (PHF8): 0.5293; Array Heatmap signal (histone peptide microarray) (PHRF1 (RP)): 0.4776; Array Heatmap signal (histone peptide microarray) (RAG2): 0.4658; Array Heatmap signal (histone peptide microarray) (SP140L): 0.356; Array Heatmap signal (histone peptide microarray) (TAF3): 0.3453; Array Heatmap signal (histone peptide microarray) (TRIM66 (PB)): 0.5905
H3R2me2a + K4me3: H3 1-20	0.4826	0.4862	0.4143	0.5963	0.8429	0.5913	0.8005	0.6763	0.5767	0.6869	0.5638	0.4758	0.4004	0.6181	0.4987	0.8444	0.7318	0.6231	0.5712	0.7481	Array Heatmap signal (histone peptide microarray) (MORC3 (CW)): 0.8119; Array Heatmap signal (histone peptide microarray) (PHF13): 0.6893; Array Heatmap signal (histone peptide microarray) (PHF21A): 0.4989; Array Heatmap signal (histone peptide microarray) (PHF23): 0.6448; Array Heatmap signal (histone peptide microarray) (PHF2): 0.6438; Array Heatmap signal (histone peptide microarray) (PHF8): 0.6195; Array Heatmap signal (histone peptide microarray) (PHRF1 (RP)): 0.4573; Array Heatmap signal (histone peptide microarray) (RAG2): 0.449; Array Heatmap signal (histone peptide microarray) (SP140L): 0.3488; Array Heatmap signal (histone peptide microarray) (TAF3): 0.3674; Array Heatmap signal (histone peptide microarray) (TRIM66 (PB)): 0.6477
H3R2me2a + T3p + K4me3 + K9ac + K14ac + K18ac: H3 1-20	0.414	0.4718	0.3469	0.601	0.7369	0.5374	0.7634	0.7018	0.5919	0.6041	0.4704	0.4544	0.3446	0.4624	0.4561	0.4737	0.6524	0.4463	0.3252	0.5392	Array Heatmap signal (histone peptide microarray) (MORC3 (CW)): 0.4346; Array Heatmap signal (histone peptide microarray) (PHF13): 0.5933; Array Heatmap signal (histone peptide microarray) (PHF21A): 0.4332; Array Heatmap signal (histone peptide microarray) (PHF23): 0.5518; Array Heatmap signal (histone peptide microarray) (PHF2): 0.6236; Array Heatmap signal (histone peptide microarray) (PHF8): 0.377; Array Heatmap signal (histone peptide microarray) (PHRF1 (RP)): 0.4697; Array Heatmap signal (histone peptide microarray) (RAG2): 0.2569; Array Heatmap signal (histone peptide microarray) (SP140L): 0.3444; Array Heatmap signal (histone peptide microarray) (TAF3): 0.2554; Array Heatmap signal (histone peptide microarray) (TRIM66 (PB)): 0.5775
